Patent US20140286964A1, “Methods for Identifying Janus Kinase (JAK) Modulators for Therapeutics” (NEW YORK UNIVERSITY, priority 2011, published 2014)

Columns and labels:
[1] = biological target: T1, insulin receptor kinase (phosphorylated, active form) (Homo sapiens, UniProt P06213); experiment: mant-ATP binding to insulin receptor kinase (comparison)
T1 construct: the insulin receptor kinase (phosphorylated, active form)

[2] = biological target: T2, Jak2 JH2-VF (V617F) (Homo sapiens, UniProt O60674, F794H/V617F/W777A); experiment: mant-ATP binding to JH2-VF; details: fluorescent ATP analog mant-ATP
T2 construct: 6xHis (N); made in house; host or cells: baculovirus-infected Sf9 cells
Excerpt: (§1) As a first step in characterizing the catalytic properties of Jak2 JH2, dissociation constants (Kd values) for ATP binding to JH2-WT and -VF were obtained using the fluorescent ATP analog mant-ATP.

[3] = biological target: T3, JAK2 JH2 (JH2-Peak2) (Homo sapiens, UniProt O60674); experiment: Mant-ATP binding assay (fluorescence) with JH2-Peak2
T3 construct: We produced and purified human Jak2 JH2, residues 513-824, as described previously; 6xHis (C, cleaved yes); made in house; host or cells: Sf9 insect cells (baculovirus, pFASTBAC1)
Method: FIG. 13 provides an analysis of JAK2 JH2 autophosphorylation and ATP binding activity. (a) Time-course kinase assay of purified JH2-Peak1 and JH2-Peak2. (b) Time-course kinase assay of purified JH2 S523A and Y570F mutants compared to JH2-Peak2. (c) Fluorescence measurement of ATP binding assay of JAK2 JH2-Peak2. (d) Kd measurement of mant-ATP binding to JH2-Peak2. Graph, mean±s.d. of three independent experiments.
The fluorescence intensity of mant-ATP (Invitrogen) complex with JH2 was measured using FluoroMax-2 spectrofluorimeter. Mant-ATP (1 μM) was added to a buffer solution (20 mM TRIS-HCl, pH 8, 200 mM NaCl, 10% (v/v) glycerol and 0.5 mM TCEP) along with 5 mM MnCl2 and 1 μM JH2 (from peak 2 fraction). The excitation and emission wavelengths were 280 nm and 440 nm, respectively, and emission was scanned from 400-500 nm. For kd measurements, increased concentration of purified JH2 (0.25 μM-6 μM) was added to buffer solution with 5 mM MnCl2 and 1 μM mant-ATP.
If the pseudokinase domain of JAK2 is an active protein kinase, utilizing ATP as a phosphate donor, it should bind ATP with a physiologic Kd value. The binding of ATP to JH2 of JAK2 was evaluated using the fluorescent ATP-analogue mant [2′-(3′)—O—(N-methylanthraniloy)]-ATP. […] Mant-ATP bound to JH2 with a Kd of ˜1 μM (FIG. 13d), which is ˜10% of the reported Kd for JH1 of JAK2 (Hall, et al., Protein Expr. Purif. 2010; 69: 54-63). […]

[4] = biological target: T4, Jak2 JH2-WT (Homo sapiens, UniProt O60674, F794H/W659A/W777A); experiment: mant-ATP binding (decrease of tryptophan emission by FRET) to JH2-WT; details: fluorescent ATP analog mant-ATP, FIG. 5
T4 construct: 6xHis (N); made in house; host or cells: baculovirus-infected Sf9 cells
Method: FIG. 5 depicts ATP binding to JH2-WT. The decrease of the tryptophan emission signal at 340 nm (excitation wavelength at 285 nm) resulting from FRET upon mant-ATP binding to JH2 was measured as a function of mant-ATP concentration. The plotted data points are an average of two experiments.
as §1

T1 sequence (P06213 1023-1298 limits assumed): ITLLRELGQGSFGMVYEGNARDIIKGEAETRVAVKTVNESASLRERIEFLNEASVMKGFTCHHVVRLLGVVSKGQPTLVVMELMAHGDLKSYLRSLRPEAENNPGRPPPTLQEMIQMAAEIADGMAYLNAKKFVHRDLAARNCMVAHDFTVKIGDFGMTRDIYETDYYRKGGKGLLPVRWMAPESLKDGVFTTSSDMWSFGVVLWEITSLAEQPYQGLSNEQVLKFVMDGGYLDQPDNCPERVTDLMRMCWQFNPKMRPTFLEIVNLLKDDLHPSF
T3 sequence (O60674 513-824): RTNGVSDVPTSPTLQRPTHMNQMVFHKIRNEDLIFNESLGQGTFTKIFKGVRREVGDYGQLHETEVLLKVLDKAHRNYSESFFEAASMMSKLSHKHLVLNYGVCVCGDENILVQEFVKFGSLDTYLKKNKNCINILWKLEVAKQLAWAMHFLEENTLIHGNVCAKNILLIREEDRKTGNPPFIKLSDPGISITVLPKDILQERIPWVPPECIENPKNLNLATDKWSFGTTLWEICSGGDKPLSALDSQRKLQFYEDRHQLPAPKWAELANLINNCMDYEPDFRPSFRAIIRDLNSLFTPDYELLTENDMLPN
T2 sequence (O60674 536-812 V617F/W777A/F794H): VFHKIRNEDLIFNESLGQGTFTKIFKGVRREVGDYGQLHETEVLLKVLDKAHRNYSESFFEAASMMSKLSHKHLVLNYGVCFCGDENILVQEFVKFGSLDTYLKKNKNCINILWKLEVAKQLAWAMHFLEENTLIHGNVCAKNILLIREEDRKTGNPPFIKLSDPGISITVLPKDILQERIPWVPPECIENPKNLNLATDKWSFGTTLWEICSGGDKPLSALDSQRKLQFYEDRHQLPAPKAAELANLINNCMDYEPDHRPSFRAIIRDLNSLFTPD
T4 sequence (O60674 536-812 W659A/W777A/F794H): as the sequence (O60674 536-812 V617F/W777A/F794H) above, with F82V, W124A counted along it

With “mant [2′-(3′)—O—(N-methylanthraniloy)]-ATP [mant-ATP]” the “Kd fold higher than for JH2” value ([1]; insulin receptor kinase Kd versus Jak2 JH2 Kd) was ~30 fold, the Kd ([1]; insulin receptor kinase, phosphorylated active form, same measurement) was 14 µM and the Kd [2] was 84 nM. The Kd ([3]; JH2-Peak2, 5 mM MnCl2, 1 μM mant-ATP, JH2 0.25-6 μM, FIG. 13d) was ~1000 nM, the “Kd as percentage of the reported Kd for JH1 of JAK2” value ([3]; JH2 Kd versus literature Kd for JH1 (Hall et al. 2010)) was ~10% and the Kd [4] was 82 nM.
